Assay results taken from US20240033319A1, “PEPTIDES FOR PREVENTING OR TREATING HEART AND BLOOD VESSEL DISEASES” (RD NÉPHROLOGIE, priority 2020, published 2024).
No end group written: not given here.

Key:
[1] = test system: human aortic smooth muscle cells (hAoSMCs); experiment: Calcification of cultivated human aortic smooth muscle cells in calcifying medium (Ca2+ content); assay type: cell-based; conditions: for effect on calcium content / calcification of hAoSMCs: peptide fragment 100 nmol L^−1, 7 days
Experimental: Cell culture and calcification induction in human aortic smooth muscle cells: Human aortic smooth muscle cells (hAoSMCs) (Promocell, Heidelberg, Germany) were cultivated in smooth muscle cell medium (Promocell, Heidelberg, Germany). The hAoSMCs were seeded in 48 well plates (5×10^3 cells/well) at 80% confluence. Dulbecco's modified Eagle's medium (DMEM) containing 25 mmol L^−1 glucose supplemented with 2.5% fetal calf serum and 2.8 mmol L^−1 phosphate were used to induce calcification (calcifying medium, CM). The calcifying medium was supplemented with CBF (max. concentration 100 pmol L^−1) or CBF fragments (100 nmol L^−1). As reference medium, DMEM containing 25 mmol L^−1 glucose supplemented with 2.5% fetal calf serum and 0.9 mmol L^−1 phosphate were used (non-calcifying medium, NCM). The hAoSMCs were incubated for 7 days while the incubation medium was replaced after 48 h.
Measurement of calcium content: For determination of calcium content, cells or aortic rings were washed 3 times with PBS without calcium. Aortic rings were dried and weighed. Dried aortic rings and cells were decalcified with 0.1 M HCl for 24 h, and the calcium content in the supernatant was determined by the o-cresolphthalein complexone method (Clinical Chemistry Assay Kit/Calcium, County Antrim, UK) according to the manufacturer's protocol. Cell content was extracted in 0.1 M NaOH 0.1% sodium dodecyl sulfate (SDS), and protein content was measured by the bicinchoninic acid (BCA) protein assay method (Thermo Fisher Scientific, Germany). The calcium content was normalized to total protein for cells or dry weight for aortic rings.

[2] = test system: rat aortic rings; conditions: for effect on calcium content / calcification of rat aortic rings: peptide fragment 100 nmol L^−1, 7 days
[3] = test system: VDN rats; experiment: VDN (vitamin D3 plus nicotine) rat model of elastocalcinosis: aortic calcium, von Kossa staining, pulse pressure; assay type: in vivo; conditions: for pulse pressure (Example 3 peptide comparison) / calcified surface of the aortas, Von Kossa staining (Example 3 peptide comparison) / calcium content of the aortas (Example 3 peptide comparison): VDN animals, versus control animals; for pulse pressure (Example 3 peptide comparison): FIG. 5a; for calcified surface of the aortas, Von Kossa staining (Example 3 peptide comparison): FIG. 5b; for calcium content of the aortas (Example 3 peptide comparison): FIG. 5c
Experimental: Ex vivo and calcification of rat aortic rings: The thoracic aorta of 8-13 weeks old male Wistar-rats were gently dissected and were cut in 3-4 mm segments. The endothelial layer of the aortic ring was manually damaged by scratching using a conventional pipette tip. The aortic rings were incubated with DMEM containing 25 mmol L^−1 glucose supplemented with 2.5% fetal calf serum and 2.8 mmol L^−1 phosphate to induce calcification. The calcification medium was supplemented with CBF (max. concentration 1 μmol L^−1) or CBF fragments (100 nmol L^−1). As reference medium, DMEM containing 25 mmol L^−1 glucose supplemented with 2.5% fetal calf serum and 0.9 mmol L^−1 phosphate were used (non-calcifying medium, NCM). The aortic rings were incubated for 7 days while the medium was replaced after 48 h. Effect of CBF in an animal model with enhanced arterial calcification: An animal model of elastocalcinosis with proven increased arterial calcification (Niederhoffer et al., “Aortic calcification produced by vitmin D3 plus nicotine”, J. Vasc. Res. 34, 386-98, 1997) was chosen to assay the effects of CBF in vivo. Animal experiments were approved by the regional ethics committee “Comité d'éthique pour I'expérimentation animale Languedoc Roussillon N°36”, with the agreement number APAFIS 2018072715539434#17270v4, and conformed to the Guide for the Care and Use of Laboratory Animals, NIH (National Academies Press US, 8th edition, 2011). Three groups of 6 weeks old Wistar rats (Charles River Laboratories, L'Arbresle, France) were given a regular rat chow (A04, Safe, Villemoisson-sur-Orge, France) and spring water (Mont Roucous®, France; calcium 60 μM) ad libitum for one week before experiments. Two groups received CBF (31 μg kg^−1 per day) or its vehicle (saline) infused through an osmotic pump (Alzet 2004, Charles River, France) implanted under the skin. CBF treatment was initiated 3 or 4 days before induction of elastocalcinosis (vitamin D3 plus nicotine, or VDN rats) with a single injection of vitamin D3 (300,000 IU kg^−1, i.m.) and two gavages of nicotine (25 mg kg^−1, 5 ml kg^−1) on the same day, as previously described ^47.
Untreated rats served as control rats (sham operation and saline administration). Four weeks later, rats were anaesthetized (ketamine-xylazine), and a catheter was inserted into the right carotid artery for blood pressure measurement. After 10-15 min of equilibration, systolic, diastolic, mean arterial, and pulse (systolic-diastolic) pressures were determined. The aorta was gently dissected, adventitial fat removed, and cut into segments (3-4 mm) for further analysis.
Histological calcification staining and immunofluorescence staining: Aortic rings were placed in 1 ml of 4% formaldehyde for 1 h to prepare for histological and immunohistochemical staining. The rings were dehydrated and embedded in paraffin and 5 μm slices were prepared by a microtome (Leica RM 2250, Wetzlar, Germany). The slices were placed on a glass slide, deparaffinized in xylene, and dehydrated in decreasingly concentrated sopropanol solutions before staining. Von Kossa staining was performed to visualize calcified areas of the aortic rings. The aortic ring slides were incubated with 5% silver nitrate in the presence of UV light at 405 nm for 1 h, washed three times with double-distilled water (ddH2O), incubated in the presence of 5% sodium thiosulfate in water for 1 min, and washed three times with ddH2O. Next, nuclear fast red (Merck; Darmstadt, Germany) was added to the slides for 5 min. The slides were then rinsed, dehydrated with ethanol, incubated for 5 min in xylol, and covered with Vitro-Clud (R. Langenbrinck; Emmendingen, Germany). For immunohistochemical analyses, sections were blocked with blocking solution (1% bovine serum albumin (BSA)) for 30 min at room temperature. […]

## EEDN (listed as Homo sapiens) [CBF 07-10]
[1]
  effect on calcium content / calcification of hAoSMCs: inhibitory effect on vascular calcification
[2]; calcifying medium
  effect on calcium content / calcification of rat aortic rings: inhibitory effect on vascular calcification

## EEEDN RDSSM (EEEDNRDSSM; listed as Homo sapiens) [CBF fragment 06-15]
[1]
  effect on calcium content / calcification of hAoSMCs: no significant effect
[2]; calcifying medium
  effect on calcium content / calcification of rat aortic rings: no significant effect

## EEEE (listed as Homo sapiens) [CBF 05-08]
[1]
  effect on calcium content / calcification of hAoSMCs: strongest inhibition
[2]; calcifying medium
  effect on calcium content / calcification of rat aortic rings: strongest inhibition

## CBF2: CBF fragment comprising the amino acids 11-19 (RDSSMKLSF; listed as Homo sapiens)
[1]
  effect on calcium content / calcification of hAoSMCs: no significant effect
[2]; calcifying medium
  effect on calcium content / calcification of rat aortic rings: no significant effect
[3]
  pulse pressure (Example 3 peptide comparison): no effect
  calcified surface of the aortas, Von Kossa staining (Example 3 peptide comparison): no effect
  calcium content of the aortas (Example 3 peptide comparison): no effect

## GQEE (listed as Homo sapiens) [CBF 03-06]
[1]
  effect on calcium content / calcification of hAoSMCs: inhibitory effect on vascular calcification
[2]; calcifying medium
  effect on calcium content / calcification of rat aortic rings: inhibitory effect on vascular calcification

## LEGQEEEEDNRDSSMKLSF [CBF, LEGQE EEEDN RDSSM KLSF]
[1]; hAoSMCs, 7 days, Ca2+ content
  threshold concentration for decreasing calcification in hAoSMCs: ~1 amol L^−1
[2]
  EC50: ~0.1 nM
[2]; aortic rings ex vivo, calcifying medium, 7 days, Ca content
  threshold concentration for reducing calcification of rat aortic rings: ~0.01 nmol/L
[2]; calcifying medium, CBF 100 nM
  reduction in the calcified area of aortic rings (von Kossa staining): 40%
[3]; 31 μg kg^−1 per day via osmotic pump for 4 weeks
  Ca2+ content in vessels of treated VDN rats compared to untreated animals: significantly reduced
[3]
  pulse pressure (Example 3 peptide comparison): significantly lower pulse pressure
  calcified surface of the aortas, Von Kossa staining (Example 3 peptide comparison): decreased calcified surface
  calcium content of the aortas (Example 3 peptide comparison): decrease in calcium content
[3]; VDN rats, 31 μg kg^−1 per day for 4 weeks
  reduction of pulse pressure: 63%
[3]; VDN rats, 31 μg kg^−1 per day via osmotic pump for 4 weeks
  decrease of calcified surface of aorta (von Kossa staining): 70%
[3]; VDN rats, chronic treatment 4 weeks, untreated VDN 81±6
  pulse pressure: 53±3
[3]; chronic treatment in vivo, 4 weeks
  arterial pressure in VDN animals: significant decrease

## EEED (listed as Homo sapiens) [CBF 06-09]
[1]
  effect on calcium content / calcification of hAoSMCs: strongest inhibition
[2]; calcifying medium
  effect on calcium content / calcification of rat aortic rings: strongest inhibition

## LEGQE (listed as Homo sapiens) [CBF 01-05]
[1]
  effect on calcium content / calcification of hAoSMCs: significant reduction of calcification
[2]; calcifying medium
  effect on calcium content / calcification of rat aortic rings: significant reduction of calcification

## LEGQ (listed as Homo sapiens) [CBF 01-04]
[1]
  effect on calcium content / calcification of hAoSMCs: inhibitory effect on vascular calcification
[2]; calcifying medium
  effect on calcium content / calcification of rat aortic rings: inhibitory effect on vascular calcification

## QEEE (listed as Homo sapiens) [CBF 04-07]
[1]
  effect on calcium content / calcification of hAoSMCs: strongest inhibition
[2]; calcifying medium
  effect on calcium content / calcification of rat aortic rings: strongest inhibition

## LEGQE EEEDN (LEGQEEEEDN; listed as Homo sapiens) [CBF1, amino acids 1-10 of CBF]
[1]
  effect on calcium content / calcification of hAoSMCs: significantly decreased the calcium content
[2]; calcifying medium
  effect on calcium content / calcification of rat aortic rings: significantly decreased the calcium content
[3]
  calcified surface of the aortas, Von Kossa staining (Example 3 peptide comparison): even more pronounced decrease
  calcium content of the aortas (Example 3 peptide comparison): even more pronounced decrease

## EGQE (listed as Homo sapiens) [CBF 02-05]
[1]
  effect on calcium content / calcification of hAoSMCs: inhibitory effect on vascular calcification
[2]; calcifying medium
  effect on calcium content / calcification of rat aortic rings: inhibitory effect on vascular calcification

## EEEDN (listed as Homo sapiens) [CBF 06-10]
[1]
  effect on calcium content / calcification of hAoSMCs: significant reduction of calcification
[2]; calcifying medium
  effect on calcium content / calcification of rat aortic rings: significant reduction of calcification
